Measurements published in patent US12251383B2, “Methods and compositions for KRAS inhibitors” (The Board of Regents of the University of Texas System, priority 2019, dated 2025).
“Also recorded” adds a separate entry of the source. Read-outs that look alike come from different tables or passages of the source.

Tests used:
[1] = target: KRAS^Q61H in the GTP state (Homo sapiens, UniProt P01116, Q61H); experiment: MST binding, GTP-state KRAS Q61H
KRAS^G12D = experiment: Cell signaling (Western) in BHK cells expressing KRAS G12D; format: cell-based, hamster; details: for IC50: Mesocricetus auratus, BHK, 3 h
Procedure: (§1) Cell signaling. The inhibitory potential of compounds was tested in monoclonal Baby Hamster Kidney (BHK) cell lines stably expressing monomeric green fluorescence protein (mGFP)-tagged KRAS^G12D, K-Ras^G12V and HRAS^G12V. Cells were cultured in Dulbecco's Modified Eagle Medium (DMEM, Hyclone) supplemented with 10% v/v bovine calf serum and incubated with compound or vehicle (DMSO) for 3 h without serum. Cells were then harvested in lysis buffer (50 mM Tris (pH 7.5), 75 mM NaCl, 25 mM NaF, 5 mM MgCl2, 5 mM EGTA, 1 mM dithiothreitol, 100 μM NaVO4, 1% Nonidet P40 plus protease inhibitors) and subjected to Western analysis controlling protein loading by BCA (bicinchoninic acid) assay. Lysates were resolved with Bio-Rad polyacrylamide TGX 10% gel, transferred to polyvinylidene fluoride (PVDF) membrane and immunoblotted using pan-AKT (2920S), GFP (2956S), pAKT^S473 (4060L), p-cRaf^S338 (9427S), p-ERK^T202/Y204 (4370L), ERK1/2 (4695S) or β-actin antibodies (Cell Signaling Technology). IC50 values were calculated with Prism 4-parameter fit.
Cell signaling assays identify compound 11 as a promising initial hit Western analysis was used to quickly assess the potential impact of the predicted hits on MAPK signaling, a major pathway mediated by KRAS. Specifically, ERK1/2 phosphorylation levels (p-ERK) were monitored in BHK cells stably expressing KRAS^G12D treated with vehicle (DMSO), the MEK inhibitor […] (U) or compound at four different concentrations (1-100 μM). […] Compounds 9 and 11 (structures for compounds 1-11 are provided in Appendix I, attached hereto), on the other hand, decreased p-ERK levels at concentrations ≥50 μM and ≥5 μM, respectively. To verify the latter observation, the experiments were repeated in an expanded concentration range starting from 0.1 μM. […] However, compound 9 (see Appendix I, attached hereto) increased p-ERK levels at 25 and 38 μM in contrast to the decrease observed at higher concentrations (FIG. S1B; see Appendix I, attached hereto).

KRAS^G12V = experiment: Cell signaling (Western) in BHK cells expressing KRAS G12V; format: cell-based, hamster
Procedure: as §1

[2] = target: T1, KRAS^G12D-cRaf interaction (Homo sapiens, UniProt P01116, G12D); experiment: FLIM-FRET of GFP-KRAS G12D and RFP-cRaf in BHK cells; format: cell-based, hamster; details: 1 μM
T1 construct: expressed in transfected cells; host or cells: BHK (baby hamster kidney) cells, transient expression
Text: [formula] where P1 is polarization of free KRAS, P2 is polarization of Raf-bound KRAS, c is the total concentration of KRAS, and x the total concentration of Raf^RBD. (FIG. 2B) Amount of GFP-KRAS^G12D pulled down by GST-Raf^RBD after treatment of cell lysates with compound at the concentrations indicated (representative Westerns are shown at the top). The RBD sequence length was 1-149 and 51-131 in the fluorescence polarization and pull-down assays, respectively. (FIG. 2C) GFP fluorescence lifetime from FLIM-FRET using cells expressing GFP-KRAS^G12D alone or with RFP-Raf, with or without treatment by 1 μM compound 11. Data are shown as mean±S.E; significance estimated by one-way analysis of variance.
Fluorescence lifetime imaging (FLIM)-fluorescence resonance energy transfer (FRET). FLIM-FRET experiments were carried out using a lifetime fluorescence imaging attachment (Lambert Instruments, The Netherlands) on an inverted microscope (43). BHK cells transiently expressing mGFP-tagged KRAS^G12D (donor), alone or with mRFP-tagged cRaf^WT (acceptor) (using 1:5 ratio), were prepared as indicated in each experiment. The samples were excited using a sinusoidally modulated 3 W 470 nm light-emitting diode at 40 MHz under epi-illumination. Fluorescein was used as a lifetime reference standard. […] The phase and modulation were determined from 12 phase settings using the manufacturer's software. […]

[3] = test system: H1975 (KRAS^WT) lung cancer cells; experiment: Cell proliferation (CyQuant), H1975; format: cell-based; details: 72 h
Procedure: (§2) Cell proliferation. Potential effect of the ligands on cancer cell proliferation was tested in three lung cancer cells: SKLU-1, H1975 and H522. Cells were plated at ˜1,000 cell per well in a 96-well plate and maintained in full serum media with or without compound at 37° C. for 72 h changing the media with the compound every 24 h. Media with compound was prepared by serial dilution at concentrations indicated. Then cells were washed with PBS and frozen at −80° C. for a minimum of 24 h. Plates were thawed and CyQuant™ dye (in lysis buffer provided in the CyQuant™ cell proliferation assay kit, Invitrogen™) was added, and after a five-minute incubation, fluorescence (excitation: 480 nm emission: 520 nm) was measured with a Tecan Infinite M200 plate reader.

[4] = test system: H522 (KRAS^WT) lung cancer cells; experiment: Cell proliferation (CyQuant), H522; format: cell-based; details: 72 h
Procedure: as §2

lung cancer cells = experiment: Cell proliferation (CyQuant), lung cancer cells overall; format: cell-based
Text: (FIG. 5A) Chemical structure of compounds 12, an analogue of 11 lacking the terminal methyl alcohol functional group. (FIG. 5B) Predicted binding pose of compound 12. (FIG. 5C) p-ERK and p-cRaf levels in BHK cells expressing KRAS^G12D treated with indicated concentrations of compound 12 or vehicle. (FIG. 5D) Proliferation profile of lung cancer cells upon treatment with increasing concentration of compound 12, monitored by a CyQuant assay. Data are averages over three independent experiments and error bars represent standard error. (FIG. 5E) GFP fluorescence lifetime from FLIM-FRET using cells expressing GFP-KRAS^G12D alone or together with RFP-cRaf, with or without treatment with 2 μM compound 12.
as §2

[5] = test system: RASless MEF cells expressing BRAF V600E; experiment: Proliferation of RASless MEF cells expressing BRAF V600E; format: cell-based; details: Mus musculus, normalized to DMSO control, 3 measurements, read-out: IC50 for inhibition of proliferation
Procedure: Cell numbers were averaged from 3 independent measurements and normalized with respect to DMSO control. Assays were conducted as described in McCarthy et al, (ACS Omega2019, 4, 2, 2921-2930).

SMILES: Cc1nn2c(N3CCN(CCO)CC3)cc(-c3ccccc3)nc2c1-c1ccccc1 [Compound 11, 2-[4-(8-methyl-3,9-diphenyl-2,6,7-triazabicyclo[4.3.0]nona-2,4,7,9-tetraen-5-yl)piperazin-1-yl]ethanol]
- Kd [1]: 400 to 700 nM
- concentration at which p-ERK levels are decreased (KRAS^G12D; BHK KRAS^G12D): ≥ 5 µM
- effect on p-ERK levels (KRAS^G12D; BHK KRAS^G12D): dose-dependently reduced; also recorded: dose-dependently decreases
- effect on p-cRaf levels (KRAS^G12D; BHK KRAS^G12D): dose-dependently reduced; also recorded: dose-dependently decreases
- reduction of p-ERK levels (KRAS^G12D; BHK KRAS^G12D, at 5 μM): ~50%
- IC50 (KRAS^G12D; read-out: IC50 for p-ERK): 1300 nM
- IC50 (KRAS^G12D; read-out: IC50 for p-cRaf): 700 nM
- effect on p-ERK levels (KRAS^G12V): dose-dependently reduced; also recorded: dose-dependently decreases
- effect on p-cRaf levels (KRAS^G12V): dose-dependently reduced; also recorded: dose-dependently decreases
- KRAS^G12D-cRaf interaction (quenching of GFP fluorescence lifetime) [2]: significantly reduced
- sensitivity of proliferation [3]: sensitive
- sensitivity of proliferation [4]: sensitive
- selectivity between KRAS mutant and KRAS^WT lung cancer cells (lung cancer cells): no significant difference
- IC50 [5]: 1680 ± 170 nM
